Measurements as given in the supplement of paper PMC11208160.

Assay: recombinant UMI read abundance after kanamycin selection (control-corrected) (log10(CPM+1)); higher = more efficient recombination; extreme values may be limits of the assay; sequences stand for … in AGTGCAGAGAAAATCGGCCAGTTTTCTCTGCCTGCAGTCCGCATGCCGTGGGACCCCTTGGGTTCTAACCTGTTGCCTAGATTTATGCAGCGGACTGCCTTTCTCCCAAAGTGATAAACCGG…AGGTTGGTTTCACT; site = the 11-nt donor
Summary of the method: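 For the IS621 bridge recombinase, a pooled Escherichia coli screen tested donor and donor-binding-loop pairs. Cells received the pair library together with a target plasmid encoding a fixed target and T7-inducible recombinase, then went onto IPTG (0.07 mM) plus kanamycin or unselected plates in duplicate. After PCR across the donor–target junction and sequencing, recombinant UMI counts were normalized to CPM, averaged, and scaled by control-derived factors. Each value is given as log10(CPM+1).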
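Also: IS621 bridge recombinase in Escherichia coli cells against a fixed T5 target plasmid.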

| Sequence | recombinant UMI read abundance (log10) |
| --- | --- |
| TATTTCGCATGGACCGGTTTTCCCGGTAATCCGTATTTGTG (site TATTTGGCTCA) | 0 |
| TATTTCGCATGGACCGGTTTTCCCGGTAATCCGTATTTGTG (site TATTTTGCTCA) | 0.00403 |
| TATTTGCCATGGACCGGTTTTCCCGGTAATCCGTATTTGTG (site TATTTGACTCA) | 0.0205 |
| TATTTGCCATGGACCGGTTTTCCCGGTAATCCGTATTTGTG (site TATTTGCCTCA) | 0.0197 |
| TATTTGCCATGGACCGGTTTTCCCGGTAATCCGTATTTGTG (site TATTTGGCTCA) | 0.00691 |
| TATTTGCCATGGACCGGTTTTCCCGGTAATCCGTATTTGTG (site TATTTGTCTCA) | 0.0226 |
| TATTTGGCATGGACCGGTTTTCCCGGTAATCCGTATTTGAG (site TATTTGGCTCA) | 0.0138 |
| TATTTGGCATGGACCGGTTTTCCCGGTAATCCGTATTTGAG (site TATTTGGCTCC) | 0.00558 |
| TATTTGGCATGGACCGGTTTTCCCGGTAATCCGTATTTGAG (site TATTTGGCTCG) | 0.012 |
| TATTTGGCATGGACCGGTTTTCCCGGTAATCCGTATTTGAG (site TATTTGGCTCT) | 0.00868 |
| TATTTGGCATGGACCGGTTTTCCCGGTAATCCGTATTTGTA (site TATTTGGCTAA) | 0.00533 |
| TATTTGGCATGGACCGGTTTTCCCGGTAATCCGTATTTGTA (site TATTTGGCTCA) | 0.0148 |
| TATTTGGCATGGACCGGTTTTCCCGGTAATCCGTATTTGTA (site TATTTGGCTGA) | 0 |
| TATTTGGCATGGACCGGTTTTCCCGGTAATCCGTATTTGTA (site TATTTGGCTTA) | 0.00725 |
| TATTTGGCATGGACCGGTTTTCCCGGTAATCCGTATTTGTT (site TATTTGGCTAA) | 0.17 |
| TATTTGGCATGGACCGGTTTTCCCGGTAATCCGTATTTGTT (site TATTTGGCTCA) | 0.0085 |
| TATTTGGCATGGACCGGTTTTCCCGGTAATCCGTATTTGTT (site TATTTGGCTGA) | 0 |
| TATTTGGCATGGACCGGTTTTCCCGGTAATCCGTATTTGTT (site TATTTGGCTTA) | 0 |
| TCAAATGCATGGACCGGTTTTCCCGGTAATCCGTATTTGCC (site TCAAATGCTGG) | 0 |
| TCAAGGACATGGACCGGTTTTCCCGGTAATCCGTATTTGCA (site TCAAGGACTTG) | 1.86 |
| TCAAGGCCATGGACCGGTTTTCCCGGTAATCCGTATTTGGT (site TCAAGGCCTAC) | 0.00348 |
| TCACCGACATGGACCGGTTTTCCCGGTAATCCGTATTTGGA (site TCACCGACTTC) | 0.0438 |
| TCACGCCCATGGACCGGTTTTCCCGGTAATCCGTATTTGCT (site TCACGCCCTAG) | 2.1 |

| Sequence | recombinant UMI read abundance (log10) |
| --- | --- |
| TCAGAGACATGGACCGGTTTTCCCGGTAATCCGTATTTGTG (site TCAGAGACTCA) | 1.03 |
| TCAGAGACATGGACCGGTTTTCCCGGTAATCCGTATTTGTG (site TCAGAGACTCC) | 0.353 |
| TCAGAGACATGGACCGGTTTTCCCGGTAATCCGTATTTGTG (site TCAGAGACTCG) | 1.44 |
| TCAGAGACATGGACCGGTTTTCCCGGTAATCCGTATTTGTG (site TCAGAGACTCT) | 0.205 |
| TCAGAGCCATGGACCGGTTTTCCCGGTAATCCGTATTTGCG (site TCAGAGACTCG) | 0.00993 |
| TCAGAGCCATGGACCGGTTTTCCCGGTAATCCGTATTTGCG (site TCAGAGCCTCG) | 0.295 |
| TCAGAGCCATGGACCGGTTTTCCCGGTAATCCGTATTTGCG (site TCAGAGGCTCG) | 0.00861 |
| TCAGAGCCATGGACCGGTTTTCCCGGTAATCCGTATTTGCG (site TCAGAGTCTCG) | 2.36 |
| TCAGAGTCATGGACCGGTTTTCCCGGTAATCCGTATTTGCG (site TCAGAGACTCG) | 0.877 |
| TCAGAGTCATGGACCGGTTTTCCCGGTAATCCGTATTTGCG (site TCAGAGCCTCG) | 0.625 |
| TCAGAGTCATGGACCGGTTTTCCCGGTAATCCGTATTTGCG (site TCAGAGGCTCG) | 0.0319 |
| TCAGAGTCATGGACCGGTTTTCCCGGTAATCCGTATTTGCG (site TCAGAGTCTCG) | 3 |
| TCAGTACCATGGACCGGTTTTCCCGGTAATCCGTATTTGTG (site TCAGTACCTCA) | 0.023 |
| TCAGTAGCATGGACCGGTTTTCCCGGTAATCCGTATTTGAT (site TCAGTAGCTAT) | 2.12 |
| TCAGTATCATGGACCGGTTTTCCCGGTAATCCGTATTTGCG (site ACAGTATCTTG) | 0 |
| TCAGTATCATGGACCGGTTTTCCCGGTAATCCGTATTTGCG (site TCAGTATCTCG) | 1.85 |
| TCAGTCCCATGGACCGGTTTTCCCGGTAATCCGTATTTGGT (site TCAGTCCCTAC) | 0 |
| TCATAGACATGGACCGGTTTTCCCGGTAATCCGTATTTGCG (site TCAAAGACTCG) | 0.629 |
| TCATAGACATGGACCGGTTTTCCCGGTAATCCGTATTTGCG (site TCACAGACTCG) | 0.285 |
| TCATAGACATGGACCGGTTTTCCCGGTAATCCGTATTTGCG (site TCAGAGACTCG) | 0.00296 |
| TCATAGACATGGACCGGTTTTCCCGGTAATCCGTATTTGCG (site TCATAGACTCG) | 1.87 |
| TCATAGACATGGACCGGTTTTCCCGGTAATCCGTATTTGGA (site TCATAGACTTC) | 0.712 |
| TCATCAGCATGGACCGGTTTTCCCGGTAATCCGTATTTGAT (site TCATCAGCTAT) | 0.316 |

| Sequence | recombinant UMI read abundance (log10) |
| --- | --- |
| TCATCTCCATGGACCGGTTTTCCCGGTAATCCGTATTTGTC (site TCATCTCCTGA) | 0 |
| TCATGATCATGGACCGGTTTTCCCGGTAATCCGTATTTGCC (site TCATGATCTGG) | 0.807 |
| TCATGATCATGGACCGGTTTTCCCGGTAATCCGTATTTGGA (site TCATGATCTTC) | 1.32 |
| TCCAACCCATGGACCGGTTTTCCCGGTAATCCGTATTTGCC (site TCCAACCCTGG) | 0 |
| TCCAACGCATGGACCGGTTTTCCCGGTAATCCGTATTTGAT (site TCCAACGCTAT) | 0 |
| TCCACACCATGGACCGGTTTTCCCGGTAATCCGTATTTGAG (site TCCACACCTCT) | 0.0221 |
| TCCACAGCATGGACCGGTTTTCCCGGTAATCCGTATTTGCG (site TCCACAGCTCG) | 0 |
| TCCACAGCATGGACCGGTTTTCCCGGTAATCCGTATTTGCG (site TCCACCGCTCG) | 0.00793 |
| TCCACAGCATGGACCGGTTTTCCCGGTAATCCGTATTTGCG (site TCCACGGCTCG) | 0.0203 |
| TCCACAGCATGGACCGGTTTTCCCGGTAATCCGTATTTGCG (site TCCACTGCTCG) | 0.0252 |
| TCCACCCCATGGACCGGTTTTCCCGGTAATCCGTATTTGCG (site TCCACCACTCG) | 0.00655 |
| TCCACCCCATGGACCGGTTTTCCCGGTAATCCGTATTTGCG (site TCCACCCCTCG) | 0.0148 |
| TCCACCCCATGGACCGGTTTTCCCGGTAATCCGTATTTGCG (site TCCACCGCTCG) | 0.0184 |
| TCCACCCCATGGACCGGTTTTCCCGGTAATCCGTATTTGCG (site TCCACCTCTCG) | 0.00748 |
| TCCACCGCATGGACCGGTTTTCCCGGTAATCCGTATTTGAG (site TCCACCGCTCA) | 0.0207 |
| TCCACCGCATGGACCGGTTTTCCCGGTAATCCGTATTTGAG (site TCCACCGCTCC) | 0.0231 |
| TCCACCGCATGGACCGGTTTTCCCGGTAATCCGTATTTGAG (site TCCACCGCTCG) | 0.0211 |
| TCCACCGCATGGACCGGTTTTCCCGGTAATCCGTATTTGAG (site TCCACCGCTCT) | 0.0235 |
| TCCACCGCATGGACCGGTTTTCCCGGTAATCCGTATTTGCA (site TCCACCGCTAG) | 0.00852 |
| TCCACCGCATGGACCGGTTTTCCCGGTAATCCGTATTTGCA (site TCCACCGCTCG) | 0 |
| TCCACCGCATGGACCGGTTTTCCCGGTAATCCGTATTTGCA (site TCCACCGCTGG) | 0 |
| TCCACCGCATGGACCGGTTTTCCCGGTAATCCGTATTTGCA (site TCCACCGCTTG) | 0.167 |
